The test system of one assay is L-selectin (CD62L). The experiment in a line: Cell surface expression of L-selectin in human neutrophils (immunofluorescence flow cytometry). Format: cell-based. The note with it: human neutrophils, 10 ng/ml; Medium = 100. The text has this:
(§1) Isolation and treatment of neutrophils.
(§2) Monoclonal antibodies. […] The antibodies are commercially available.
(§3) Immunofluorescence flow cytometry. […] Results were expressed as relative MFI (rMFI), such that
(§4) rMFI=(MFIagent×100)/MFImedium
(§5) Background fluorescence was substracted from all values.

In another assay the test system is CD11b. Put plainly: Cell surface expression of CD11b in human neutrophils (immunofluorescence flow cytometry). Format: cell-based. Conditions: 10 ng/ml, rMFI=(MFIagent×100)/MFImedium, Medium = 100.
Excerpt: as §1, §2, §3, §4, §5

For another assay, the system named is CD43. Put plainly: Cell surface expression of CD43 in human neutrophils (immunofluorescence flow cytometry). It is filed as cell-based. The note with it: 10 ng/ml, Medium = 100.
Excerpt: as §1, §2, §3, §4, §5

The test system of the next assay is HLA. Conditions: human neutrophils, 10 ng/ml; Medium = 100. The protocol: Isolation and treatment of neutrophils. Human neutrophils were obtained from fresh peripheral blood by dextran sedimentation and centrifugation on Ficoll-Hypaque followed by hypotonic lysis of residual erythrocytes. […] Cells were resuspended at 3×10^6 neutrophils/ml in HEPES/glucose buffer (150 mM NaCl, 5 mM KCl, 10 mM HEPES, 1.2 mM MgCl2, 1.3 mM CaCl2, 5.5 mM glucose, pH 7.5), and incubated in the absence or presence of distinct agents at 37° C. for the times indicated in the respective legends to figures. Subsequently, cells were pelleted by centrifugation and saved to determine the content of different cell surface antigens by flow cytometry.
Monoclonal antibodies. The following monoclonal antibodies were used: TS1/11 anti-CD11a, Bear-1 anti-CD11b, TP1/36.1 anti-CD43, HP2/9 anti-CD44, Leu-8 anti-L-selectin, and W6/32, specific for a monomorphic determinant on HLA-A, B molecules. P3X63 myeloma culture supernatant was used as a negative control. The antibodies are commercially available.
Immunofluorescence flow cytometry. Immunofluorescence flow cytometry analysis was performed in a FACStar-Plus and a FACScan flow cytometers (Becton-Dickinson). Neutrophils were incubated at 4° C. with the corresponding monoclonal antibody followed by washing and labelling with a fluorescein isothiocyanate (FITC)-labelled-goat anti-mouse IgG antibody (DAKO, Glostrup, Denmark). Mean fluorescence intensity (MFI) in linear scale was obtained from at least 7000 cells in each sample, and the fluorescence produced by the myeloma P3X63 supernatant was considered as background. Results were expressed as relative MFI (rMFI), such that
as §4, §5

A further assay deals with CD11a. Put plainly: Cell surface expression of CD11a in human neutrophils (immunofluorescence flow cytometry). Format: cell-based. Conditions: 10 ng/ml, Medium = 100.
Excerpt: as §1, §2, §3, §4, §5

Another assay has as its system CD44. Put plainly: Cell surface expression of CD44 in human neutrophils (immunofluorescence flow cytometry). Format: cell-based. The note with it: 10 ng/ml, Medium = 100.
Excerpt: as §1, §2, §3, §4, §5

Assay [1] concerns PGE2 production in murine fibroblasts 3T3. Put plainly: PGE2 measurement in 3T3 cells (enzyme immunoassay). It is filed as cell-based, Mouse. The note with it: for pg PGE2 (intracellular): 3T3 cells, 20 min at 37° C., Control 112 ± 21. As for the experimental part:
Cell culture. Human promyelocytic HL-60 cells and promonocytic U937 cells were grown in RPMI-1640 culture medium supplemented with 10% (v/v) heat-inactivated fetal calf serum, 2 mM L-glutamine, 100 units/ml penicillin and 24 μg/ml gentamicin. Mouse 3T3 fibroblasts were grown in Dulbecco's modified Eagle's medium (DMEM) supplemented with 10% (v/v) heat-inactivated fetal calf serum, 2 mM L-glutamine, 100 units/ml penicillin and 24 μg/ml gentamicin. Cells were incubated at 37° C. in a humidified atmosphere at 5% CO2 and 95% air.
Prostaglandin E2 (PGE2) measurement. 3T3 cells (1.5×10^5 in 100 μl in complete DMEM culture medium) were incubated overnight at 37° C. (5% CO2) in 96-well microtitre plates (tissue-culture grade). Then, the distinct agents were added in 100 μl complete DMEM culture medium for 20 min at 37° C. After washing thoroughly the cells with PBS, cells were lysed and intracellular PGE2 was measured using an enzyme immunoassay kit (Amersham Pharmacia Biotech, Buckinghamshire, UK) following the manufacturer's instructions. Data obtained in duplicate measurements were converted into actual amounts of PGE2 using a calibration curve run in parallel with defined amounts of PGE2.

Assay [2] can be described thus: Body weight evaluation in the TNB colitis rat model. Format: in vivo. The note with it: Wistar rat, 2.5 mg/Kg p.o.; Mean ± SEM. The protocol:
(§6) The therapeutic potential for the treatment of ulcerative colitis of IEC01 at 2.5 and 5 mg/kg and IES01 at 2.5 mg/kg, was evaluated after their administration by oral route during 14 days (7 days of preventive treatment and 7 days of therapeutic treatment) using the rat model of experimental colitis induced by TNB (2,4,6-trinitrobenzenesulphonic acid). As reference parameters, the body weight, wet colon weight and score macroscopic evaluation were evaluated after 24 hours and after 7 days of the intraluminal administration of TNB in the colon.

Assay [3] deals with experimental colitis induced by TNB (2,4,6-trinitrobenzenesulphonic acid). Put plainly: Rat model of experimental colitis induced by TNB, macroscopic evaluation. It is filed as in vivo. On the set-up: Wet Weight (colon): unit not given beside the values. Conditions: Wistar rat, 2.5 mg/Kg p.o.; for Wet Weight (colon) / Sample 2 × 6 mm / Score (0-10) / Weight/mm: Mean ± SEM. As for the experimental part:
as §6, with “colon. […] The inflammatory response is recognised by the presence of ulcerative fissures, faecal shatters and inflammation of bowel wall. A chronic inflammatory response was observed 7 days after the administration. An erratic response with lineal or punctual ulcers, necrosis, faecal shatters, reduction of colonic lumen, granulomas and peritoneal adherence was observed.” for “colon.”

The subject of assay [4] is bentonite-induced skin edema in mice. Put plainly: Bentonite-induced skin edema in mice. It is filed as in vivo. The note with it: for Area (area below the curve of difference between right and left pad diameter) / Inhibition of the inflammatory process: mice; for Inhibition of the inflammatory process: versus inflamed control. From the text: Mice were individually identified with an ear code and were kept in groups of 6 per cage (Makrolon: 47.6×22.7×14.5 cm). Each cage was individually labelled with the n^o. of the study, type of treatment, doses used and route of administration, as well as the name of the director of the study, number and gender of contained animals, date of arrival and of the beginning of the experiment.
The animals had free access to mouse standard chow (UAR A04C; Usine d'Alimentation Rationelle, 91360-Villemoisson sur Orge, Francia; lot nos. 70520 and 70722). Drinking water access was ad libitum. The water, supplied by the Compañia de Aguas de Sabadell, S.A., is routinely analysed for the presence of possible contaminants. The temperature in the animal rooms was 22±3° C., with sporadic peaks of 26° C.; air humidity was 60±10%, with sporadic peaks of 80%. Daily light (between 7:00 h and 19:00 h) and dark phases were installed automatically.
Upon arrival, all animals were allowed to rest in the facilities for 8 days before use in the experiment. Table 2 indicates the six random groups of 10 mice each were set for experimentation.
The diameter of both hind pads of all mice was measured at day 0 and set as the basal value. Edema was then induced by injecting s.c. 13.3 mg/ml bentonite in 0.03 ml PBS into the right food pad. The corresponding mice were given daily the different compounds orally for 21 days. The inflamed control group was given 0.2 ml PBS only. The diameter of hind pads, as well as the body weight, was then measured every other day.
In each experimental group the average value, the standard deviation (SD) and the standard error was determined for the two parameters studied (hind pad diameter and body weight). The factor variance analysis (FVA) was used to compare the values obtained in the different groups. Where statistically significant differences were observed, the Duncan-Kramer test for a p<0.05 was applied.
The area below the curves corresponding to the diameters of the right and left pads was calculated and the evolution of the difference between them were plotted (FIGS. 7 and 8). The anti-inflammatory capacity of the different substances was evaluated as the extent of inhibition of the inflammatory process that was calculated with the formula [formula]
where C is the area below the inflammed control group and T the area below the different treatment groups.

The test system of assay [5] is PGE2 synthesis in human mucosal gastric biopsies. The experiment in a line: Ex vivo PGE2 synthesis in human mucosal gastric biopsies. Conditions: human mucosal gastric biopsies, agents 10 μM, 20 min at 37° C.; Control 115 ± 26; mean ± S.D., three experiments. As for the experimental part: The ability of the gastric mucosa to generate prostaglandins estimates total cyclooxygenase (COX) activity (COX-1 plus any COX-2). To measure ex vivo prostaglandin E2 (PGE2) synthesis, normal gastric mucosal biopsies were immediately placed in Ependorff tubes containing phosphate-buffered saline (PBS). […] Each mucosal gastric biopsy was cut into different pieces (about 1 mg weight) that were subsequently weighed and incubated in the absence or in the presence of the distinct agents indicated in the corresponding Table for 20 min at 37° C. in 200 μl Hepes-glucose buffer. Then cells were mucosal gastric samples were pelleted by centrifugation, lysed and intracellular PGE2 was measured using an enzyme immunoassay kit (Amersham Pharmacia Biotech, Buckinghamshire, UK) following the manufacturer's instructions. Prostaglandin synthesis is expressed as picograms of PGE2 synthesised per mg of tissue incubation. Each experiment corresponded to the use of one biopsy, in order to avoid variability among different biopsies. Normal volunteers without a previous pharmacological treatment were selected for these assays. The normal gastroduodenal mucosa was visually assessed by endoscopy.
Human mucosal gastric biopsies were cut into about 1 mg pieces, incubated with the indicted agents (10 μM) for 20 min at 37° C. in Hepes-glucose buffer, and then the intracellular content of PGE2 was determined as described in the Methods section. Untreated control samples were run in parallel. Data are shown as mean Values+S.D. from three independent experiments.

Setting [6] is: after 24 hours of intraluminal administration.
The mark [7] stands for this setting: after 7 days of intraluminal administration.
[8] abbreviates: 2.5 mg/kg orally daily for 21 days.
[9] abbreviates: 5 mg/kg orally daily for 21 days.

`CCCCCCCCCCCCCC(=O)O[C@@H]1[C@@H](C)[C@@]2(O)[C@@H](C=C(CO)C[C@]3(O)C(=O)C(C)=C[C@@H]23)[C@@H]2C(C)(C)[C@]12OC(C)=O` [PMA, reference compound]: the “L-Selectin cell surface expression (rMFI)” value with L-selectin (CD62L) came to 38 ± 7. For the same compound, the “CD11b cell surface expression (rMFI)” value in the assay with CD11b was 272 ± 22. In addition, the “CD43 cell surface expression (rMFI)” value with CD43 came out at 33.5 ± 9. The “HLA cell surface expression (rMFI)” value with HLA was determined as 96 ± 7. In the assay with CD11a, the “CD11a cell surface expression (rMFI)” value turned out to be 95 ± 8. The “CD44 cell surface expression (rMFI)” value with CD44 was 49.5 ± 11.

Turning to `CCCCCCCCCCCCCCCCOCC(COP(=O)(O)OCC(N)C(=O)O)OC` (stereo not shown) [IES01], the “pg PGE2 (intracellular)” value in [1] (10 μM) amounted to 192 ± 25 pg. Moreover, the “effect on PGE2 production (in words)” value in [1] (3T3 fibroblasts, ionomycin-induced PGE2) is listed as “no significant inhibition”. In assay [2], the “Body weight DAY 1” value is 232.3 ± 2.68 g, the “Body weight DAY 2” value is given as 234.5 ± 2.94 g, the “Body weight DAY 4” value is 241.9 ± 2.40 g and the “Body weight DAY 7” value is reported as 211.4 ± 2.48 g. Besides, in assay [2], the “Body weight DAY 8” value is reported as 218.8 ± 3.57 g, the “Body weight DAY 11” value is given as 244.4 ± 4.95 g, the “Body weight DAY 12” value was found to be 250.0 ± 4.72 g and the “Body weight DAY 13” value came to 249.8 ± 6.84 g. In addition, in assay [2], the “Body weight DAY 14” value was found to be 254.0 ± 8.44 g. Also, in assay [3] (setting [6]), the “% (inhibition, Sample 2 × 6 mm)” value came out at 80.2%; the “% (inhibition, Score)” value was 65.7%; the “% (inhibition, Weight/mm)” value is reported as 75.2%; the “% (inhibition, Wet Weight)” value stood at 75.3%. Besides, in assay [3] (setting [6]), the “Sample 2 × 6 mm” value worked out at 272.70 ± 44.43 mg, the “Score (0-10)” value turned out to be 3.2 ± 0.86 and the Weight/mm is recorded as 0.158 ± 0.02. Moreover, the “Wet Weight (colon)” value in [3] (after 24 hours of intraluminal administration in the colon) was determined as 1.425 ± 0.20. In assay [3] (setting [7]), the “% (inhibition, Sample 2 × 6 mm)” value worked out at 31.7%; the “% (inhibition, Weight/mm)” value worked out at 11.1%; the “% (inhibition, Wet Weight)” value came out at 11.1%; the “Sample 2 × 6 mm” value was found to be 185.04 ± 23.18 mg. Besides, in assay [3] (setting [7]), the “Score (0-10)” value stood at 2.0 ± 0.84 and the Weight/mm came out at 0.151 ± 0.03. In assay [3] (after 7 days of intraluminal administration in the colon), the “Wet Weight (colon)” value is 1.365 ± 0.24. Further, in assay [3] (after 7 days of intraluminal administration, 2.5 mg/kg), the “% (inhibition, Score)” value is listed as 50%. For the same compound, the “times more efficient in inhibiting inflammation than indomethacin, at the molecular level” value in assay [4] (2.5 mg/kg versus indomethacin 2 mg/kg, taking molecular weights into account) was 3.8 times. In addition, in assay [4] (setting [8]), the “Area (area below the curve of difference between right and left pad diameter)” value turned out to be 4.4 ± 0.63 A.U; the “Inhibition of the inflammatory process” value stood at 43.8%. Also, in assay [4] (setting [9]), the “Area (area below the curve of difference between right and left pad diameter)” value was determined as 5.6 ± 0.70 A.U; the “Inhibition of the inflammatory process” value was 28.3%.

As for `C[C@H](CCC(=O)O)C[C@H](C)C[C@H](C)C(=O)/C=C(\O)[C@H](C)C[C@H](C)C/C=C/[C@@H](C)[C@@H](O)[C@@H](C)[C@@H](O)C[C@@H]1CC[C@@](C)([C@H]2CC[C@@](C)([C@@H](C)O)O2)O1` [Ionomycin, reference compound], the “pg PGE2 (intracellular)” value in assay [1] (50 μM) is on record as 486 ± 38 pg. Also, the “pg PGE2/mg (weight)” value in [5] is on record as 308 ± 31 pg PGE2/mg.

These data come from US6583127B1, “Use of etherlysophospholipids as antiinflammatory agents” (Inkeysa. SA, priority 1998, dated 2003).
